Assay in all cases: NCI-60 cell line screen, 48 h
Test [1] has as its system 786-0.
Test [2] relates to A549.
Test [3] has as its system BT-549.
Test [4] deals with CCRF-CEM.
Test [5] deals with HCT-116.
Test [6] concerns HT-29.
In test [7] the test system is M14.
Test [8] relates to MOLT-4.
The subject of test [9] is Malme-3M.
Test [10] has as its system NCI-H226.
Test [11] has as its system NCI-H522.
Test [12] concerns OVCAR-5.
In test [13] the test system is OVCAR-8.
In test [14] the test system is RPMI-8226.
Test [15] concerns SF-539.
Test [16] concerns SK-MEL-28.
Test [17] has as its system SW-620.
The subject of test [18] is DU-145.
The test system of test [19] is OVCAR-3.

Here are results for eleven compounds from ChEMBL document CHEMBL1201862, “PubChem BioAssay data set” (2004).

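Test compounds were applied to cells in 96-well plates for 48 hours at 5 doses. GI50 = concentration required for 50% inhibition of growth.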 Activity calls are given as the source filed them. Cut-off read from the data, not from the text of the source: active = GI50 up to about 1.1 µM and inactive = higher.

`N#Cc1c(-c2ccccc2)c(C#N)c(=O)n(NS(=O)(=O)c2ccccc2)c1O`: the GI50 in test [1], in test [2], in test [3], in test [4], in [5] and in test [6] was > 100 µM (inactive) each time. Besides, the GI50 in test [7], in [8], in test [9], in test [10], in test [11] and in test [12] was > 100 µM (inactive) each time. Besides, the GI50 in [13], in [14], in [15], in [16] and in [17] was > 100 µM (inactive) throughout.

Consider `COC(=O)/C(=N\N)C(C(=O)C(=O)Nc1cccc([N+](=O)[O-])c1)c1nc2ccc(C(=O)c3ccccc3)cc2nc1O` (stereo not drawn), for which the GI50 in [1] is > 100 µM (inactive); in test [2] it was 61.4 µM (inactive); in test [3], > 100 µM (inactive); in test [4], 22.3 µM (inactive); in test [18] it was > 100 µM (inactive); in test [5] it was > 100 µM (inactive). Moreover, the GI50 in test [6] was > 100 µM (inactive); in test [7], > 100 µM (inactive); in test [8], 15 µM (inactive); in test [10] it was > 100 µM (inactive); in test [11], 72.1 µM (inactive); in [19], > 100 µM (inactive). The GI50 in [12], in test [13], in test [15], in test [16] and in test [17] was > 100 µM (inactive) in each case.

On to `COc1ccc2cc(NC(=O)N/N=C\c3ccc(Cl)cc3)ccc2c1`, for which the GI50 was 40 µM (inactive) in [1]; > 100 µM (inactive) in test [2]; > 100 µM (inactive) in [3]; > 100 µM (inactive) in test [4]; > 100 µM (inactive) in test [18]; > 100 µM (inactive) in test [5]. Besides, the GI50 in test [6] is > 100 µM (inactive); in [7] it was > 100 µM (inactive); in test [8], > 100 µM (inactive); in test [9] it was 34 µM (inactive); in test [10], > 100 µM (inactive); in test [11] it was > 100 µM (inactive). The GI50 in test [19] is > 100 µM (inactive); in test [12], > 100 µM (inactive); in test [13] it was 96.8 µM (inactive); in test [14] it was > 100 µM (inactive); in [15], 43.1 µM (inactive); in [16], > 100 µM (inactive). For the same compound, the GI50 in [17] is > 100 µM (inactive).

As to `c1ccc(/C(=N/Nc2ccncn2)c2ccccn2)cc1`, the GI50 is 17.8 µM (inactive) in [1]; 30.4 µM (inactive) in test [2]; 35.1 µM (inactive) in test [3]; 1.65 µM (inactive) in [4]; 34.6 µM (inactive) in [18]; 14.3 µM (inactive) in test [5]. Further, the GI50 in test [6] is 0.883 µM (active); in test [7], 10.3 µM (inactive); in [8] it was 3.47 µM (inactive); in [10], 15.8 µM (inactive); in test [11] it was 0.776 µM (active); in test [19], 6.78 µM (inactive). In addition, the GI50 in test [12] was 34.5 µM (inactive); in test [13], 16.6 µM (inactive); in test [14], 9.75 µM (inactive); in test [15] it was 32.2 µM (inactive); in [16], 70.3 µM (inactive); in test [17], 6.32 µM (inactive).

In the case of `COc1cc(C2c3cc4c(cc3[C@@H](Nc3ccc([N+](=O)[O-])cc3)C3COC(=O)[C@H]23)OCO4)cc(OC)c1O` (stereo partly drawn), the GI50 is 0.652 µM (active) in [1]; 2.3 µM (inactive) in test [3]; 0.198 µM (active) in test [4]; 0.362 µM (active) in test [18]; 2.27 µM (inactive) in [5]; 2.64 µM (inactive) in test [6]. The GI50 is 1.33 µM (inactive) in test [7]; 0.0171 µM (active) in [8]; 2.01 µM (inactive) in test [9]; 0.67 µM (active) in [10]; 1.63 µM (inactive) in [11]; 4.57 µM (inactive) in [19]. In addition, the GI50 in test [12] is 2.69 µM (inactive); in test [13] it was 1.83 µM (inactive); in test [14], 0.525 µM (active); in test [15], 0.92 µM (active); in test [16], 3.84 µM (inactive); in test [17], 1.5 µM (inactive).

Regarding `c1ccc(C2=NN(c3ccccc3)C3(S2)SC(c2ccccc2)(c2ccccc2)c2ccccc23)cc1` (stereo not drawn), the GI50 in test [1], in test [2], in test [4], in test [5], in [6] and in [7] was > 100 µM (inactive) throughout. For the same compound, the GI50 in test [8], in test [9], in test [10], in test [11], in test [19] and in test [12] was > 100 µM (inactive) in each case. In addition, the GI50 in [13], in test [14], in test [15], in test [16] and in [17] was > 100 µM (inactive) throughout.

In the case of `Cc1cc(S(=O)(=O)Nc2nc3ccccc3c(=O)n2N)c(S)cc1Cl`, the GI50 in test [1] is 21.3 µM (inactive); in test [2], 31.1 µM (inactive); in test [3], 47.6 µM (inactive); in test [4], 62.5 µM (inactive); in [18] it was 43 µM (inactive); in [5] it was 32 µM (inactive). Moreover, the GI50 in test [6] is 53 µM (inactive); in test [7] it was 39.6 µM (inactive); in [8], 47.6 µM (inactive); in test [9] it was 23.1 µM (inactive); in test [10], 21.7 µM (inactive); in [19] it was 44.6 µM (inactive). The GI50 in test [12] is 55.5 µM (inactive); in test [13] it was 30.2 µM (inactive); in test [14] it was 34.7 µM (inactive); in [15], 27.6 µM (inactive); in test [16], 67.9 µM (inactive); in [17], 59.8 µM (inactive).

As for `CC(C)(CN1CCCCC1)C(/C=C/c1ccccc1)=N\NC(=O)N/N=C(/C=C/c1ccccc1)C(C)(C)CN1CCCCC1`, the GI50 in test [1] is 1.46 µM (inactive); in [2], 2.43 µM (inactive); in test [3], 1.77 µM (inactive); in test [4], 1.19 µM (inactive); in test [5], 1.58 µM (inactive); in [6], 1.07 µM (active). Moreover, the GI50 in [7] was 1.71 µM (inactive); in [8] it was 1.67 µM (inactive); in test [9], 2.04 µM (inactive); in test [10], 2.37 µM (inactive); in test [11], 1.83 µM (inactive); in [19] it was 2.34 µM (inactive). The GI50 in test [12] is 4.29 µM (inactive); in [13] it was 1.78 µM (inactive); in test [14], 1.27 µM (inactive); in test [16], 1.68 µM (inactive); in test [17], 1.7 µM (inactive).

Take `NC(CCCCN/C=C1/N=C(c2ccccc2)OC1=O)C(=O)O` (stereo not drawn): the GI50 in test [1] is > 100 µM (inactive); in test [2], > 100 µM (inactive); in [4] it was 52 µM (inactive); in test [5], > 100 µM (inactive); in test [6], > 100 µM (inactive); in test [7], > 100 µM (inactive). Also, the GI50 was > 100 µM (inactive) in test [8]; > 100 µM (inactive) in test [9]; > 100 µM (inactive) in test [10]; 26.1 µM (inactive) in [11]; > 100 µM (inactive) in test [19]; > 100 µM (inactive) in test [12]. For the same compound, the GI50 in [13], in test [14], in test [15], in [16] and in test [17] was > 100 µM (inactive) throughout.

For the compound `O=c1c2ccccc2c(=O)n2n1-c1cccc(c1)CSSCc1cccc-2c1`, the GI50 in test [1] was 58.3 µM (inactive); in test [2], > 10 µM (inactive); in [4] it was > 10 µM (inactive); in test [5], > 10 µM (inactive); in [6] it was > 10 µM (inactive); in test [7], > 10 µM (inactive). Moreover, the GI50 in [8], in test [9], in test [10], in test [11], in test [19] and in [12] was > 10 µM (inactive) in each case. Besides, the GI50 in [13], in test [14], in [15], in test [16] and in test [17] was > 10 µM (inactive) in each case.

For `CSc1nc(Cl)c2c(n1)Sc1nc3cc4c(cc3n1C2O)OCO4` (stereo not drawn), the GI50 in [1] is 0.321 µM (active); in test [2], 0.617 µM (active); in test [3], 0.452 µM (active); in test [4], 0.269 µM (active); in [18] it was 0.318 µM (active); in [5], 0.0863 µM (active). Besides, the GI50 in test [6] was 0.254 µM (active); in test [7], 0.333 µM (active); in test [9], 0.516 µM (active); in [10] it was 1.1 µM (active); in [11], 0.26 µM (active); in test [19], 0.982 µM (active). Besides, the GI50 in test [12] is 0.92 µM (active); in test [13], 0.575 µM (active); in test [14], 0.385 µM (active); in test [15], 0.126 µM (active); in test [16] it was 0.895 µM (active); in test [17], 0.33 µM (active).
